In US8815844B2, “Mitochondrial activity inhibitors of cancer-initiating cells and use thereof” (Universite de Geneve, priority 2009, dated 2014):

Columns and labels:
[1] = tested on: FL1^+ cells (glioma-initiating cells, gliomasphere cultures); assay: in vitro recurrence assay (treatment then recovery), viable FL1+ cells by FACS; type: cell-based, human; conditions: for rating as anti-CSC agent: in vitro recurrence assay criteria; for number of viable FL1^+ cells: temsirolimus (1 μM elsewhere in the source), 5 μM cyclopamine, 5 μM DAPT; for killing of FL1^+ cells: 5 μM, exposure along 20 days; for killing of FL1^+ cell population by inhibition of mitochondrial complex: FIG. 6, 5 μM
Source text: In contrast to other methods, which preferentially use cancer cell lines and stem cell marker like CD133 as a read-out of stemness, the Applicants' technology relies on primary cell cultures derived from human specimen and on a simple and unbiased detection of CICs independently of the use of any marker. Thus Applicants took advantage of such methodology to design and develop an in vitro recurrence assay to screen and validate potential therapeutic agents for eradicating cancer stem cells in glioma. […] The novelties here reside on the read-out of stemness used for testing the efficiency of any drug and on the possibility to identify specific anti-CSC agent.
Basically, any agent or inhibitor would be considered as an efficient anti-CSC agent if it fulfils the following criteria:
• 1) a viability of GICs (FL1^+ cells) decreases for more than 50% during the exposure to said agent or inhibitor during a maximum of 20 days, • 2) a recovery of GICs (FL1^+ cells) is less than 0.2 fold during the recovery phase of a maximum of 20 days, and • 3) the viability of normal brain cells is sustainable and recoverable during and after the exposure to the said agent or inhibitor.
a) Providing a cancer stem cell sample;
b) Treating the cancer stem cell sample provided under (a) with an agent;
c) Incubating the treated stem cell sample in a stem cell culture medium for an incubation period without treatment;
d) Selecting the viable cell population from the stem cell sample incubated under step (c); […]

primary GBM-2 cells = assay: in vivo tumorigenicity of cells pretreated in vitro with inhibitors; design: species or system mice; conditions: GBM-2 cells treated 10 days in vitro prior implantation; for histological analyses for tumours: 17 weeks post-implantation; for state of mice implanted with pretreated cells: up to 17 weeks post-implantation
Source text: Control mice had symptoms 4 weeks post-implantation and were sacrificed. […] Experiment was stopped 17 weeks post-implantation.

FL1^+ cells = assay: effect of exogenous lactate addition on FL1+ cells; type: cell-based, human; conditions: exogeneous lactate along 10 days
Procedure: A: Levels of metabolite (LAC: lactate, PYR: pyruvate, GLUC: glucose) for FL1^+ and FL1^0 cells; B & C: Effect of lactate addition (LAC) on FL1^+ cell morphology by phase contrast imaging (B) and on the percentage of FL1^0 cells (C). Non treated (NT); Scale bar: […]. D: Level of active Lactate Deshydrogenase (LD expressed in UI/L) in purified-FL1^+ and -FL1^0 cells.

[2] = tested on: primary glioma cells (FBS cultures)
Procedure: (§1) To test the specificity of such inhibitor towards CICs, normal brains cells and primary glioma cells (FBS cultures) were exposed to the above mentioned mitochondrial agents for 10 days.
(§2) For short term/dose response (48 hrs): Dissociated gliomasphere cells, adherent glioma and normal cells were plated at 10 cell/μl in DMEM-F12 Glutamax, BIT20% or B27 (1/50), Hepes 30 mM, Penicillin/streptomycin 1/1000, with reduced mitogens at 1 ng/ml or with reduced level of serum (2.5%).
(§3) For long term treatment/recovery assay (T10 and/or T20): Dissociated gliomasphere cells, adherent glioma and normal cells were plated at 2 cell/μl in DMEM-F12 Glutamax, Hepes 30 mM, BIT20% or B27 (1/50), Penicillin/streptomycin 1/1000, with reduced mitogens at 1 ng/ml or with reduced level of serum (2.5%).
(§4) For the recovery, cells were harvested, washed with PBS1x, and placed back into their standard media.

Procedure for normal brain cells: as §1, §2, §3, §4

## CO[C@H]1C[C@@H]2CC[C@@H](C)[C@@](O)(O2)C(=O)C(=O)N2CCCC[C@H]2C(=O)O[C@H]([C@H](C)C[C@@H]2CC[C@@H](OC(=O)C(C)(CO)CO)[C@H](OC)C2)CC(=O)[C@H](C)/C=C(\C)[C@@H](O)[C@@H](OC)C(=O)[C@H](C)C[C@H](C)/C=C/C=C/C=C/1C [temsirolimus, Temsirolimus]
[1]
  rating as anti-CSC agent: inefficient
  number of viable FL1^+ cells: decrease of the number of viable FL1^+ cells

## CC1=C2C[C@H]3[C@@H](CC=C4C[C@@H](O)CC[C@@]43C)[C@@H]2CC[C@]12O[C@@H]1C[C@H](C)CN[C@H]1[C@H]2C [cyclopamine, Cyclopamine]
[1]
  rating as anti-CSC agent: inefficient

## C#Cc1cccc(Nc2ncnc3cc(OCCOC)c(OCCOC)cc23)c1 [Erlotinib]
[1]; all gliomasphere cultures, long term treatment, Erlotinib 5 μM
  time in which gliomasphere cultures recover from the treatment: ≤ 10 days
[1]; long term treatment, Erlotinib 5 μM
  GBM in which cell death is induced in more than 50% of FL1^+ cells: 2/6

## CN(C)CCCN1c2ccccc2CCc2ccc(Cl)cc21 [Anafranil, Clomipramine]
[1]
  killing of FL1^+ cells: kills all FL1^+ cell
Primary GBM-2 cells
  histological analyses for tumours: no visible tumours
  state of mice implanted with pretreated cells: alive without symptoms

## CC(O)C(=O)O (centres unmarked) [lactate]
FL1^+ cells
  effect on FL1^+ cell morphology: induce cell adhesion
  effect on cell phenotype (FL1^0 cells): commits cells towards the FL1^0 phenotype

## Cn1nnc2c(C(N)=O)ncn2c1=O [temozolomide, Temozolomide]
[1]; Homo sapiens, 480 h, temozolomide 25 μM, up to 20 days treatment, read-out: FL1^+ cells still viable after treatment
  viability at 25 µM: > 30%

## C=C(C)[C@H]1Cc2c(ccc3c2O[C@@H]2COc4cc(OC)c(OC)cc4[C@@H]2C3=O)O1 [Rotenone]
[1]
  killing of FL1^+ cells: kills all FL1^+ cell
  killing of FL1^+ cell population by inhibition of mitochondrial complex: kills the FL1^+ cell population
Primary GBM-2 cells
  histological analyses for tumours: no visible tumours
  state of mice implanted with pretreated cells: alive without symptoms

## C[C@H](NC(=O)Cc1cc(F)cc(F)c1)C(=O)N[C@H](C(=O)OC(C)(C)C)c1ccccc1 [DAPT, N—[N-(3,5-Difluorophenacetyl-L-alanyl)]-S-phenylglycine t-Butyl Ester]
[1]
  rating as anti-CSC agent: inefficient
  number of viable FL1^+ cells: decrease of the number of viable FL1^+ cells

## Oligomycin A/B
[2]; FIG. 6
  effect on glioma cells: eradicate any kind of brain cells including normal and glioma ones
[2]; exposure for 10 days, FBS cultures
  viability of primary glioma cells: sensitive
[1]
  killing of FL1^+ cells: kills all FL1^+ cell
  killing of FL1^+ cell population by inhibition of mitochondrial complex: kills the FL1^+ cell population

## CCCCCC[C@H]1C(=O)O[C@H](C)[C@H](NC(=O)c2cccc(NC=O)c2O)C(=O)O[C@@H](C)[C@@H]1OC(=O)CC(C)C [Antimycin A]
Normal brain cells; FIG. 6
  effect on normal brain cells: does not really affect the viability of normal brain cells
Normal brain cells; exposure for 10 days
  viability of normal brain cells: allows normal brain cells to survive
